Measured values: ChEMBL document CHEMBL3259778, “Design and synthesis of novel indole-chalcone fibrates as lipid lowering agents” (2014)
Active and inactive are the calls of the source. The rule behind the calls is not given here.

What was measured:
Rattus norvegicus [1] = experiment: Antidyslipidemic activity in triton-induced hyperlipidemic Charles Foster rat assessed as reduction in phospholipid in plasma at 100 mg/kg, po relative to control; format: functional; set-up: scale not given: the % may be the effect or the level left
Rattus norvegicus [2] = experiment: Antidyslipidemic activity in triton-induced hyperlipidemic Charles Foster rat assessed as reduction in triglyceride in plasma at 100 mg/kg, po relative to control; format: functional; set-up: scale not given: the % may be the effect or the level left
Rattus norvegicus [3] = experiment: Antidyslipidemic activity in triton-induced hyperlipidemic Charles Foster rat assessed as reduction in phospholipid in plasma at 50 to 150 mg/kg, po relative to control; format: functional; set-up: scale not given: the % may be the effect or the level left; settings: dose mg/kg 50-150
Rattus norvegicus [4] = experiment: Antidyslipidemic activity in triton-induced hyperlipidemic po dosed Charles Foster rat assessed as reduction in VLDL in plasma relative to control; format: functional, organism-based
Rattus norvegicus [5] = experiment: Antidyslipidemic activity in triton-induced hyperlipidemic Charles Foster rat assessed as plasma post heparin lipolytic activity at 100 mg/kg, po relative to control; format: functional
[6] = Antioxidant activity assessed as suppression of microsomal lipid peroxidation measured as MDA formation at 200 ug/ml after 90 mins by spectrophotometry relative to control; format: functional
Rattus norvegicus [7] = experiment: Antidyslipidemic activity in triton-induced hyperlipidemic Charles Foster rat assessed as reduction in total cholesterol in plasma at 100 mg/kg, po relative to control; format: functional; set-up: scale not given: the % may be the effect or the level left
Rattus norvegicus [8] = experiment: Antidyslipidemic activity in triton-induced hyperlipidemic Charles Foster rat assessed as reduction in triglyceride in plasma at 50 to 150 mg/kg, po relative to control; format: functional; set-up: scale not given: the % may be the effect or the level left; settings: dose mg/kg 50-150
[9] = Antioxidant activity assessed as hydroxyl ion scavenging activity measured as MDA formation at 200 ug/ml after 90 mins by spectrophotometry relative to control; format: functional
Rattus norvegicus [10] = experiment: Antidyslipidemic activity in triton-induced hyperlipidemic po dosed Charles Foster rat assessed as increase in HDL in plasma relative to control; format: functional, organism-based
Rattus norvegicus [11] = experiment: Antidyslipidemic activity in triton-induced hyperlipidemic po dosed Charles Foster rat assessed as reduction in LDL in plasma relative to control; format: functional, organism-based
Rattus norvegicus [12] = experiment: Antidyslipidemic activity in triton-induced hyperlipidemic Charles Foster rat assessed as increase in total lipolytic activity of lipoprotein lipase at 100 mg/kg, po relative to control; format: functional, organism-based; set-up: dose 100 mg/kg
[13] = Antioxidant activity assessed as superoxide ion scavenging activity measured as formazone formation at 200 ug/ml after 90 mins by spectrophotometry relative to control; format: functional
Rattus norvegicus [14] = experiment: Antidyslipidemic activity in triton-induced hyperlipidemic Charles Foster rat assessed as reduction in total cholesterol in plasma at 50 to 150 mg/kg, po relative to control; format: functional; set-up: scale not given: the % may be the effect or the level left; settings: dose mg/kg 50-150

Structure (SMILES) | Activity (Rattus norvegicus [1]) [%] | Activity (Rattus norvegicus [2]) [%] | Activity (Rattus norvegicus [3]) [%] | Activity (Rattus norvegicus [4]) | Activity (Rattus norvegicus [5]) [%] | Activity [6] [%] | Activity (Rattus norvegicus [7]) [%] | Activity (Rattus norvegicus [8]) [%] | Activity [9] [%] | Activity (Rattus norvegicus [10]) | Activity (Rattus norvegicus [11]) | Activity (Rattus norvegicus [12]) | Activity [13] [%] | Activity (Rattus norvegicus [14]) [%]
CCOC(=O)C(C)(C)Oc1ccc(C(=O)/C=C/c2c(C)[nH]c3ccccc23)cc1 | 33 | 30 | 26 | Active | 20 | 40 | 32 | 25 | 41 | Active | Active | Active | 36 | 24
CCC(Oc1ccc(C(=O)/C=C/c2c(C)[nH]c3ccccc23)cc1)C(=O)OC (stereo unspecified) | 24 | 27 | 17 | Active | 16 | 28 | 26 | 15 | 29 | Active | Active | Active | 27 | 14
CCOC(=O)C(CC)Oc1ccc(C(=O)/C=C/c2c[nH]c3ccc(Cl)cc23)cc1 (stereo unspecified) | 16 | 16 |  |  | 13 |  | 18 |  |  |  |  |  |  | 
Cc1c(C)c2c(c(C)c1O)CC[C@@](C)(CCC[C@H](C)CCC[C@H](C)CCCC(C)C)O2 |  |  |  |  |  | 46 |  |  |  |  |  |  |  | 
CCOC(=O)C(CC)Oc1ccc(C(=O)/C=C/c2c(C)[nH]c3ccccc23)cc1 (stereo unspecified) | 22 | 22 |  |  | 14 |  | 20 |  |  |  |  |  |  | 
CCOC(=O)CCCOc1ccc(C(=O)/C=C/c2c(C)[nH]c3ccccc23)cc1 | 16 | 14 |  |  | 7 |  | 13 |  |  |  |  |  |  | 
CCOC(=O)C(C)Oc1ccc(C(=O)/C=C/c2c[nH]c3ccccc23)cc1 (stereo unspecified) | 13 | 12 |  |  | 8 |  | 15 |  |  |  |  |  |  | 
CCC(Oc1ccc(C(=O)/C=C/c2c[nH]c3ccccc23)cc1)C(=O)OC (stereo unspecified) | 8 | 9 |  |  | 3 |  | 8 |  |  |  |  |  |  | 
CCOC(=O)CCCOc1ccc(C(=O)/C=C/c2c[nH]c3ccccc23)cc1 | 32 | 30 | 20 | Active | 19 | 35 | 31 | 20 | 37 | Active | Active | Active | 31 | 22
OC[C@@H](O)[C@@H](O)[C@H](O)[C@H](O)CO |  |  |  |  |  |  |  |  | 53 |  |  |  |  | 
COC(=O)CCCOc1ccc(C(=O)/C=C/c2c[nH]c3ccccc23)cc1 | 22 | 22 |  |  | 14 | 30 | 20 |  | 32 |  |  |  | 26 | 
CCOC(=O)C(C)Oc1ccc(C(=O)/C=C/c2c[nH]c3ccc(Cl)cc23)cc1 (stereo unspecified) | 15 | 13 |  |  | 7 |  | 11 |  |  |  |  |  |  | 
CCOC(=O)C(C)(C)Oc1ccc(C(=O)/C=C/c2c[nH]c3ccccc23)cc1 | 22 | 22 |  |  | 14 | 36 | 20 |  | 38 |  |  |  | 33 | 
CC(C)OC(=O)C(C)(C)Oc1ccc(C(=O)c2ccc(Cl)cc2)cc1 [FENOFIBRATE] | 30 | 33 |  |  | 19 |  | 32 |  |  |  |  | Active |  | 
COC(=O)CCCOc1ccc(C(=O)/C=C/c2c(C)[nH]c3ccccc23)cc1 | 18 | 16 |  |  | 9 |  | 15 |  |  |  |  |  |  | 
Oc1ncnc2[nH]ncc12 |  |  |  |  |  |  |  |  |  |  |  |  | 49 | 
COC(=O)CCCOc1ccc(C(=O)/C=C/c2c[nH]c3ccc(Cl)cc23)cc1 | 11 | 10 |  |  | 4 |  | 10 |  |  |  |  |  |  | 
CCOC(=O)C(C)Oc1ccc(C(=O)/C=C/c2c[nH]c3ccc(OC)cc23)cc1 (stereo unspecified) | 13 | 10 |  |  | 6 |  | 11 |  |  |  |  |  |  | 
COC(=O)C(C)(C)Oc1ccc(C(=O)/C=C/c2c(C)[nH]c3ccccc23)cc1 | 12 | 10 |  |  | 6 |  | 10 |  |  |  |  |  |  | 
COC(=O)C(C)Oc1ccc(C(=O)/C=C/c2c[nH]c3ccccc23)cc1 (stereo unspecified) | 14 | 12 |  |  | 6 |  | 13 |  |  |  |  |  |  | 
COC(=O)C(C)Oc1ccc(C(=O)/C=C/c2c[nH]c3ccc(Cl)cc23)cc1 (stereo unspecified) | 14 | 17 |  |  | 3 |  | 12 |  |  |  |  |  |  | 
COC(=O)CCCOc1ccc(C(=O)/C=C/c2c[nH]c3ccc(OC)cc23)cc1 | 11 | 14 |  |  | 7 |  | 13 |  |  |  |  |  |  | 
